Experiments:
[1] = target: T1, Flt-1 VEGF-receptor tyrosine kinase (Homo sapiens, UniProt P17948); assay: Test for activity against Flt-1 VEGF-receptor tyrosine kinase; type: biochemical
T1 construct: 10 ng of the kinase domain of Flt-1
T1 sequence (P17948 827-1158 limits assumed): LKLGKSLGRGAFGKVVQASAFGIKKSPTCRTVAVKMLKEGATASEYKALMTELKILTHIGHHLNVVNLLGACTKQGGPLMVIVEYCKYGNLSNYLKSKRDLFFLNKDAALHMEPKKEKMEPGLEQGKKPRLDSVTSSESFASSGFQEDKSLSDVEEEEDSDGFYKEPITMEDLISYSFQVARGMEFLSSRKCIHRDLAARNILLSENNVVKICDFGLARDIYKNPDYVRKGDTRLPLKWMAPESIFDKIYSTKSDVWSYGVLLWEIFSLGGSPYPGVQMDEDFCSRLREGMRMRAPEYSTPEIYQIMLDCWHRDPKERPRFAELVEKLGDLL
Description: Test for activity against VEGF-receptor tyrosine kinase: the test is conducted using Flt-1 VEGF-receptor tyrosine kinase. […] The reaction is then ended by the addition of 10 μl 0.25 M ethylenediaminetetraacetate (EDTA) pH 7. Using a multichannel dispenser (LAB SYSTEMS, USA), an aliquot of 20 μl is applied to a PVDF (=polyvinyl difluoride) Immobilon P membrane (Millipore, USA), which is incorporated into a Millipore microtitre filter manifold, and connected to a vacuum. Following complete elimination of the liquid, the membrane is washed 4 times successively in a bath containing 0.5% phosphoric acid (H3PO4), incubated for 10 minutes each time while shaking, then mounted in a Hewlett Packard TopCount Manifold and the radioactivity measured after the addition of 10 μl Microscint® (β-scintillation counter liquid; Packard USA).
The test is conducted using Flt-1 VEGF-receptor tyrosine kinase, as described hereinabove.

male Wistar rats = assay: Rat adjuvant arthritis model, therapeutic dosing; type: in vivo; conditions: for % inhibition of swelling: day 15 to day 22, swelling of the tarsal joints
From the text: The well-known rat adjuvant arthritis model (Pearson, Proc. Soc. Exp. Biol. 91, 95-101 (1956)) is used to test the anti-arthritic activity of compounds of the formula I, or salts thereof. Adjuvant Arthritis can be treated uwing two different dosing schedules: either (i) starting time of immunisation with adjuvant (prophylactic dosing); or from day 15 when the arthritic response is already established (therapeutic dosing). Preferably a therapeutic dosing schedule is used. For comparison, e.g. SDZ115-155 (=DUP697) is administered in a separate group.
(§1) In detail, male Wistar rats (5 animals per group, weighing epproximately 200 g, supplied by Iffa Credo, France) are injected i.d. (intra-dermally) at the base of the tail with 0.1 ml of mineral oil containing 0.6 mg of lyophilised heat-killed Mycobacterium tuberculosis. The rats are treated with the test compound (3, 10 or 30 mg/kg p.o. once per day), or vehicle (water) from day 15 to day 22 (therapeutic dosing schedule). At the end of the experiment, the swelling of the tarsal joints is measured by means of a mico-calliper. Percentage inhibition of paw swelling is calculated by reference to vehicle treated arthritic animals (0% inhibition) and vehicle treated normal animals (100% inhibition).
The rat adjuvant arthritis model is used to test the anti-arthritic activity of the compound of Example 1 of WO 98/35958, 1-(4-chloroanilino)-4-(4-pyridylmethyl)phthalazine dihydrochloride. The therapeutic dosing schedule with start of treatment at day 15 after induction of arthritis is used.
as §1, with “Method: Male Wistar” for “In detail, male Wistar”, “(5 rats” for “(5 animals”, “group, weight about” for “group, weighing epproximately”, “200 g;” for “200 g, supplied by”, “of lyophilized” for “of lyophilised”, “p.o. s.i.d. (=once a” for “p.o. once per”

male Sprague Dawley rats = assay: Rat inflammatory hyperalgesia model (Randall-Selitto paw pressure test); type: in vivo; conditions: 30 mg/kg p.o., 1 and 2 hours after dosing
Description: In this model, the hyperalgesia caused by an intra-planar yeast injection is measured by applying increased pressure to the foot until the animal vocalizes or withdraws its foot from the applied pressure pad. The model is sensitive to COX inhibitors, and diclofenac at 3 mg/kg is used as a positive control.
Method: The baseline pressure required to induce vocalization or withdrawal of the paw of male Sprague Dawley rats (weighing approximately 180 g, supplied by Iffa Credo, France) is measured (2 hours before treatment), followed by an intra-planar injection of 100 μl of a 20% yeast suspension in water in the hind paw. […]
In this model, the hyperalgesia caused by an intra-planar yeast injection is measured by applying increased pressure to the foot until the animal vocalizes or withdraws its foot from the applied pressure pad. […]
Method: The baseline pressure required to induce vocalization or withdrawal of the paw of male Sprague Dawley rats (5 rats per group; weight approximately 180 g, Iffa Credo, France) is measured (2 hours before treatment), followed by an intra-planar injection of 100 μl of a 20% yeast suspension in water in the hind paw. […] Pressure is measured with the standard apparatus from Ugo Basile, Italy, for the paw pressure test (Randall-Selitto).

SMILES	IC50 [1]	melting point	also measured
Cc1cccc(Nc2nnc(/C=C/c3cccnc3)c3ccccc23)c1 [1 (E isomer)]	715 nM	–	–
Cc1cccc(Nc2nnc(/C=C\c3cccnc3)c3ccccc23)c1 [1 (Z isomer)]	4900 nM	–	–
Cl.Cl.Clc1ccc(Nc2nnc(Cc3ccncc3)c3ccccc23)cc1 [1-(4-chloroanilino)-4-(4-pyridylmethyl)phthalazine dihydrochloride]	–	–	% inhibition of swelling (male Wistar rats; 3 mg/kg p.o. once a day): 0.8 ± 4.0%; % inhibition of swelling (male Wistar rats; 10 mg/kg p.o. once a day): 12.4 ± 5.0%; % inhibition of swelling (male Wistar rats; 30 mg/kg p.o. once a day): 37.0 ± 2.3%; inhibition of paw swelling (in words) (male Wistar rats; 3, 10 or 30 mg/kg p.o., dosing for 7 days from day 15): dose-related inhibition of paw swelling; overall discomfort experienced by rats while being held for oral dosing (male Wistar rats; observation in the adjuvant arthritis model): reduce the overall discomfort; inhibition of paw hyperalgesia (in words) (male Sprague Dawley rats): inhibits paw hyperalgesia
CS(=O)(=O)c1ccc(-c2cc(Br)sc2-c2ccc(F)cc2)cc1 [115–155, reference compound]	–	–	% inhibition of swelling (male Wistar rats; 3 mg/kg p.o. once a day): 53.8 ± 2.7%
Cc1cc(Nc2nnc(Cc3ccncc3)c3ccccc23)nc(C)n1 [Example 15, 1-[(2,6-Dimethyl-pyrimidin-4-yl)-amino]4-(4-pyridyl-methyl)-phthalazine]	–	232 to 233 °C	–
Cc1cc(Cc2nnc(Nc3cc(Br)cc(C(F)(F)F)c3)c3ccccc23)ccn1 [Example 23, 1-(3-Bromo-5-trifluoromethyl-anilino)-4-(2-methylpyridin-4-yl-methyl)-phthalazine]	–	184 to 185 °C	–

Continued, in another order:

IC50 [1]	melting point	SMILES	also measured
317 nM	136 °C	Cc1cccc(Nc2nnc(CCc3cccnc3)c3ccccc23)c1 [Example 2]	–
–	165 to 166 °C	FC(F)(F)c1cc(Nc2nnc(CCCc3cccnc3)c3ccccc23)ccc1Cl [Example 8, 1-(4-Chloro-3-trifluoromethylanilino)-4-[3-(pyridin-3-yl)propyl]phthalazine]	–
